According to patent US9828350B2, “5,6-dihydro-2H-[1,4]oxazin-3-yl-amine derivatives useful as inhibitors of beta-secretase (BACE)” (Janssen Pharmaceutica NV, priority 2010, dated 2017):
Like-named read-outs stand apart in the source and are kept apart here.

Assays:
P-gp = molecular target: T1, P-gp (Homo sapiens, UniProt P08183); experiment: Transepithelial transport of test compounds through LLC-MDR1 monolayers; type: in vitro ADME; conditions: pig, LLC-PK1
T1 construct: expressed in transfected cells; host or cells: LLC-PK1 cells stably transduced with MDR1 (LLC-MDR1)
Description: Brief Assay Description for the Measurement of Transepithelial Transport of Test Compounds Through LLC-MDR1 Monolayers
The purpose of this assay was to assess both the in vitro passive permeability of test compounds and their ability to be transported substrates of P-gp using LLC-PK1 cells stably transduced with MDR1 in a trans-well system. The positive control for transport was ^3H-digoxin (30 nM) and the positive control inhibitor was GF120918 (5 μM). The marker compound for low permeability was ^14C-Mannitol (1 μM). The test compound concentration was 1 μM.
The integrity of the cellular monolayer was assessed in each incubation well through the inclusion of the fluorescent, low permeability marker compound, Fluorescein.
In detail, LLC-MDR1 cells were seeded on 24-well cell culture inserts (Millicell®-PCF, 0.4 μm, 13 mm diameter, 0.7 cm^2) at 400,000 cells/cm^2. Cell culture medium consisted of Medium 199 supplemented with 10% Foetal Bovine Serum (FBS) and 100 U/ml Penicillin/streptomycin and was replaced the day after seeding and the day before the experiment. The transport experiment was performed 5 days after seeding. On the day of the experiment, solutions of the test compounds were applied to the apical or basolateral side of the monolayers to assess transport in the A to B and B to A directions, respectively. The medium used in the assay was (OPTI-MEM (1×) (GIBCO) with 1 w/v % Bovine Serum Albumin. Inserts were incubated at 37° C. in a humidified incubator containing 5% CO2. Samples from the acceptor and donor compartments were collected after an incubation time of 120 min, to assess the permeability and to allow estimation of the test compound recovery during the experiment, respectively. Transport experiments were performed in triplicate. Absolute test compound concentrations were measured using LC-MS/MS and quantified via a calibration curve.

[1] = Single dose pharmacology in the Beagle dog, pharmacokinetic (PK) follow up; type: in vivo; conditions: single dose 20 mg/kg; for concentration at 24 h: both sexes
Description: Single Dose Pharmacology in the Beagle Dog
Compound 86 was tested to evaluate the effect on the beta-amyloid profile in cerebrospinal fluid (CSF) of dogs after a single dose, in combination with pharmacokinetic (PK) follow up and limited safety evaluation. 6 Beagle dogs (3 male, 3 female) were dosed with vehicle (4 ml/kg of an aqueous suspension of 20% cyclodextrin and Tween) and 6 Beagle dogs (3 male, 3 female) were dosed with compound 86 (20 mg/kg in 2 ml/kg of an aqueous 20% cyclodextrin solution) on an empty stomach. CSF was taken in conscious animals directly from the lateral ventricle via a cannula which was screwed in the skull and covered with subcutaneous tissue and skin, before and at 4, 8 and 24 hours after dosing. 8 Hours after dosing the animals got access to their regular meal for 30 minutes. Blood was taken for PK follow up (0.5, 1, 2, 4, 8 and 24 hours) and at the time of the CSF sampling, samples for serum analysis were taken. An additional sample for serum analysis was taken 10 days after dosing. The CSF samples were used for measurement of Abeta 1-37, Abeta 1-38, Abeta 1-40 and Abeta 1-42.

T1 sequence (P08183 whole entry): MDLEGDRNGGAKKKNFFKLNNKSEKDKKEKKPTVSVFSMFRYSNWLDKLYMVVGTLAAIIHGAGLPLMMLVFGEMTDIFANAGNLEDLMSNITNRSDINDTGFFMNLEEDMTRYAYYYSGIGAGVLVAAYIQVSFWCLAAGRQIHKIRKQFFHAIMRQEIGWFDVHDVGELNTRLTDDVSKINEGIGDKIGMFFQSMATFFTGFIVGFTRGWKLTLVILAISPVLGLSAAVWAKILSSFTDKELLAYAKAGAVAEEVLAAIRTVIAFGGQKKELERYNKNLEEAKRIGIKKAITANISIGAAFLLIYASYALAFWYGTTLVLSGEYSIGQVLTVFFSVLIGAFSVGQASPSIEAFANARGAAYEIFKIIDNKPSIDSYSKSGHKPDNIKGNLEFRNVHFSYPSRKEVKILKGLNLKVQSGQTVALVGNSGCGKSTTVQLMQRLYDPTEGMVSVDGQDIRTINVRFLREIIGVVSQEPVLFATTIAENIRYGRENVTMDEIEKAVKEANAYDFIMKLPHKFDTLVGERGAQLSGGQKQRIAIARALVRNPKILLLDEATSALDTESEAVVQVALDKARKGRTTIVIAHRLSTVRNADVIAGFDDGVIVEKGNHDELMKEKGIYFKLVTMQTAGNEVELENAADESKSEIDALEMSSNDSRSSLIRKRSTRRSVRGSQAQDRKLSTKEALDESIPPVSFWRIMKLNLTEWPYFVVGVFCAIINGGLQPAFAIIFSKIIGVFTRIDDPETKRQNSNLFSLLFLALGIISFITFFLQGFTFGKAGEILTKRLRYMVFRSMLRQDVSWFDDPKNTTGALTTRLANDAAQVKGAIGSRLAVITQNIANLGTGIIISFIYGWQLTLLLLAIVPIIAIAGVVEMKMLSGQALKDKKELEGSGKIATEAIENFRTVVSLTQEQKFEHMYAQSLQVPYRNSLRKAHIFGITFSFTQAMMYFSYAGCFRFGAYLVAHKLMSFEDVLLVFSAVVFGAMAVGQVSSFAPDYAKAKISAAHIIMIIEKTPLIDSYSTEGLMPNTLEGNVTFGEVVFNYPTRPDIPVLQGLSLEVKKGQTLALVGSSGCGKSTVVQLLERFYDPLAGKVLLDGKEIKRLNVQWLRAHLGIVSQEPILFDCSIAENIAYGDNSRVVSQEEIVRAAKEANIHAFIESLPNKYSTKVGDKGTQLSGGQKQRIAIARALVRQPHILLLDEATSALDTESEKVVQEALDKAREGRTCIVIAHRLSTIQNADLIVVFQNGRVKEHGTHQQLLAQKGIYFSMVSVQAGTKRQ

## C[C@]1(c2cccc(NC(=O)c3ccc(Cl)cn3)c2)N=C(N)CO[C@@H]1F (single isomer, unassigned) [Compound 86, (R*,R*)—N-[3-(5-amino-2-fluoro-3-methyl-3,6-dihydro-2H-1,4-oxazin-3-yl)phenyl]-5-chloropyridine-2-carboxamide]
P-gp; LLC-MDR1 monolayers, ratio of B to A and A to B permeation rates, read-out: BA/AB
  efflux ratio at 120 min, 1 μM: 1.6
P-gp; read-out: A to B (Apparent Permeability, Papp)
  Papp A→B at 120 min, 1 μM: 13.2 ×10⁻⁶ cm/s
P-gp; read-out: B to A (Apparent Permeability, Papp)
  Papp B→A at 120 min, 1 μM: 20.9 ×10⁻⁶ cm/s
[1]; CSF, at 24 h, read-out: CSF levels
  concentration at 24 h: 45 ng/mL
[1]; plasma, up to at least 24 h post dosing, read-out: plasma levels
  concentration at 24 h: 1440 ng/mL
[1]
  clearance: slow clearance
